Reference: patent publication US5976523A, “Method for healing compromised tissues using pyrimidine derivatives” (Mitsui Pharmaceuticals, Inc., priority 1995, dated 1999)
Counter-ions that a name gives are not always drawn.

Key:
[1] = tested on: primary cultured gastric mucosal cells; experiment: Wound repair model with primary cultured gastric mucosal cells; assay type: cell-based, rabbit
Method: Primary cultured gastric mucosal cells were prepared by mechanically peeling and mincing the gastric mucosa of a rabbit having a body weight of 2 kg and then digesting the minced gastric mucosa with 0.07% collagenase. The primary cultured gastric mucosal cells were cultured at a cell concentration of 3.3×10^5 cells/ml in F-12 culture medium containing 10% fetal calf serum added therein. For this cultivation, a culture dish (60 mm in diameter) coated with collagen type I was used. […] Using an anti-BrdU antibody, the cells in the S phase were stained to identify proliferated cells.
Their effects on the process of restoration were measured under the above-described parameters. […] In each of the control group and the medicament-added groups, the area of the wounded region was measured at the 0th hour, 12th hour, 24th hour, 36th hour and 48th hour. The measurement results will be given in this order.
The control group and the groups added with the medicament at the respective concentrations were each subjected to the experiment with n=5. The results will each be presented as a (mean±S. D.) mm2. A test of significance was conducted relative to the control group. * stands for p<0.05, ** for p<0.01, *** for p<0.001. A further test of significance was conducted relative to a group added with 10 ng/ml of EGF. + stands for p<0.05, and ++ for <0.01.

skin or muscle cut = experiment: Skin/muscle cut-suture rat model; assay type: in vivo; conditions: scanning electron microscope; indicative of the possibility
Excerpt: As a feature specific to this model, collagen fibers form a plate-like structure so that they cross at right angles with muscle fibers, and macrophages accumulate on the plate-like structure. This plate-like collagen is considered to serve in such a way that it prevents detachment or fraying of both cut ends of muscle fibers and assists formation of an anastomosis.

bone defect (tibia) = experiment: Rat bone defect model, formation of hyaline cartilage matrix; assay type: in vivo; conditions: bFGF (0.5 μg) + compound (0.5 mg) pellet, 7th day, vs bFGF pellet
Excerpt: Action of 2-piperazino-6-methyl-5-oxo-5,6-dihydro(7H)pyrro[3,4-d]pyrimidinemaleate on in vivo chondrogenesis was studied in detail by preparing a rat bone defect model which permits observation of bFGF-derived formation of a hyaline cartilage matrix. Embedment of a bFGF-containing pellet in a bone defect of the model permits easy observation of formation of a hyaline cartilage matrix under the periosteum around the bone defect. Rats were divided into three groups. The rats in one of the groups were each embedded in a formed bone defect (diameter: 2.6 mm) thereof with a hydroxyethyl methacrylate pellet (10 mg) which contained bFGF (0.5 μg). The rats in another one of the groups were each embedded likewise with a hydroxyethyl methacrylate pellet (10 mg) which contained bFGF (0.5 μg) and the invention compound (0.5 mg). The rats in the remaining group, that is, a control group were each embedded similarly with a pellet which contained physiological saline. After the rats in all the three groups were sacrificed seven days later, action of bFGF or the invention compound on the process of chondrogenesis on enchondral ossification around the bone defect was investigated. On the 7th day after the formation of the bone defect, the tibia of each rat was histologically examined around the bone defect.

SMILES: CN1Cc2nc(N3CCNCC3)ncc2C1=O [Compound B, 2-piperazino-6-methyl-5-oxo-5,6-dihydro(7H)pyrro[3,4-d]pyrimidine maleate]
- area of the wounded region (mean±S.D.) ([1]; EGF + 0.01 mM compound, 0th hour): 2.06±0.04 mm2
- area of the wounded region (mean±S.D.) ([1]; EGF + 0.01 mM compound, 12th hour): 0.92±0.05 mm2
- area of the wounded region (mean±S.D.) ([1]; EGF + 0.01 mM compound, 24th hour): 0.38±0.05 mm2
- area of the wounded region (mean±S.D.) ([1]; EGF + 0.01 mM compound, 36th hour): 0.07±0.04 mm2
- area of the wounded region (mean±S.D.) ([1]; EGF + 0.01 mM compound, 48th hour): 0 mm2
- area of the wounded region (mean±S.D.) ([1]; EGF + 0.1 mM compound, 0th hour): 2.06±0.04 mm2
- area of the wounded region (mean±S.D.) ([1]; EGF + 0.1 mM compound, 12th hour): 0.83±0.05 mm2
- area of the wounded region (mean±S.D.) ([1]; EGF + 0.1 mM compound, 24th hour): 0.29±0.07 mm2
- area of the wounded region (mean±S.D.) ([1]; EGF + 0.1 mM compound, 36th hour): 0 mm2
- area of the wounded region (mean±S.D.) ([1]; EGF + 0.1 mM compound, 48th hour): 0 mm2
- effect on EGF-induced acceleration of cell restoration ([1]; compound 0.01-0.1 mM with EGF): further promoted the EGF-induced acceleration of cell restoration in a concentration-dependent fashion
- repairing effects ([1]; compound alone 0.01-0.1 mM, absence of EGF): did not show repairing effects in the absence of EGF
- accumulation of macrophages (skin or muscle cut): effectively acts for the promotion of the formation of such plate-like collagen and the accumulation of macrophages
- formation of plate-like collagen (skin or muscle cut): effectively acts for the promotion of the formation of such plate-like collagen
- formation of a hyaline cartilage matrix (bone defect (tibia)): in an amount apparently larger than that formed in the group embedded with the bFGF-containing pellet
